EC50 and IC50 data for 13 compounds are collected here from US11161837B2, “Benzofuran derivatives for the treatment of hepatitis C” (BRISTOL-MYERS SQUIBB COMPANY, priority 2016, dated 2021).

The subject of test [1] is genotype 1b (Con-1) HCV replicon in Huh-7 cells. Kind of test: HCV replicon luciferase assay. The format is cell-based. Particulars: 1b replicon, Huh-7, Renilla luciferase, 3 days incubation. How it is done: The cell lines used to evaluate compounds consist of a human hepatocyte derived cell line (Huh-7) that constitutively expresses a genotype 1b (Con-1) HCV replicon or a genotype 1b (Con-1) HCV replicon with an asparagine replacing the cysteine at amino acid 316, or a genotype 2a (JFH-1) replicon, containing a Renilla luciferase reporter gene. These cells were maintained in Dulbecco's modified Eagle medium (DMEM) containing 10% FBS, 100 U/mL penicillin/streptomycin and 1.0 mg/mL G418.
HCV Replicon Luciferase Assay.
To evaluate compound efficacy, titrated compounds were transferred to sterile 384-well tissue culture treated plates, and the plates were seeded with HCV replicon cells (50 μL at a density of 2.4×10^3 cells/well) in DMEM containing 4% FBS (final DMSO concentration at 0.5%). After 3 days incubation at 37° C., cells were analyzed for Renilla Luciferase activity using the EnduRen substrate (Promega cat # E6485) according to the manufacturer's directions. Briefly, the EnduRen substrate was diluted in DMEM and then added to the plates to a final concentration of 7.5 μM. The plates were incubated for at least 1 h at 37° C. then read on a Viewlux Imager (PerkinElmer) using a luminescence program. The 50% effective concentration (EC50) was calculated using the four-parameter logistic formula noted above.

Test [2] concerns the target T1, NS5B proteins of HCV genotype 1b (Con1) (Hepatitis C virus genotype 1b, UniProt Q9WMX2).
T1 construct: Each untagged protein was expressed with an 18 amino acid C-terminal truncation to enhance the solubility; made in house; host or cells: E. coli BL21(DE3), pET21a
Kind of test: HCV NS5B RdRp enzyme assay. The format is biochemical. Conditions: 1b enzyme. On the procedure: HCVNS5B RdRp Cloning, Expression, and Purification.
The cDNA encoding NS5B proteins of HCV genotype 1b (Con1), a genotype 1b variant with amino acid 316 mutated from cysteine to asparagine, and genotype 2a (JFH-1), were cloned into the pET21a expression vector. Each untagged protein was expressed with an 18 amino acid C-terminal truncation to enhance the solubility. The E. coli competent cell line BL21(DE3) was used for expression of the protein. Cultures were grown at 37° C. for ˜4 hours until the cultures reached an optical density of 2.0 at 600 nm. The cultures were cooled to 20° C. and induced with 1 mM IPTG. Fresh ampicillin was added to a final concentration of 50 μg/mL and the cells were grown overnight at 20° C.
Cell pellets (3 L) were lysed for purification to yield 15-24 mgs of purified NS5B. The lysis buffer consisted of 20 mM Tris-HCl, pH 7.4, 500 mM NaCl, 0.5% triton X-100, 1 mM DTT, 1 mM EDTA, 20% glycerol, 0.5 mg/mL lysozyme, 10 mM MgCl2, 15 ug/mL deoxyribonuclease I, and Complete TM protease inhibitor tablets (Roche). After addition of the lysis buffer, frozen cell pellets were resuspended using a tissue homogenizer. To reduce the viscosity of the sample, aliquots of the lysate were sonicated on ice using a microtip attached to a Branson sonicator. The sonicated lysate was centrifuged at 100,000×g for 30 minutes at 4° C. and filtered through a 0.2 μm filter unit (Corning).
The protein was purified using two sequential chromatography steps: Heparin sepharose CL-6B and polyU sepharose 4B. The chromatography buffers were identical to the lysis buffer but contained no lysozyme, deoxyribonuclease I, MgCl2 or protease inhibitor and the NaCl concentration of the buffer was adjusted according to the requirements for charging the protein onto the column. Each column was eluted with a NaCl gradient which varied in length from 5-50 column volumes depending on the column type. After the final chromatography step, the resulting purity of the enzyme is >90% based on SDS-PAGE analysis. The enzyme was aliquoted and stored at −80° C.
HCVNS5B RdRp Enzyme Assay.
An on-bead solid phase homogeneous assay was used in a 384-well format to assess NS5B inhibitors (WangY-K, Rigat K, Roberts S, and Gao M (2006) Anal Biochem, 359: 106-111). The biotinylated oligo dT12 primer was captured on streptavidin-coupled imaging beads (GE, RPNQ0261) by mixing primer and beads in 1× buffer and incubating at room temperature for three hours. Unbound primer was removed after centrifugation. The primer-bound beads were resuspended in 3× reaction mix (20 mM Hepes buffer, pH 7.5, dT primer coupled beads, poly A template, ^3H-UTP, and RNAse inhibitor (Promega N2515)). Compounds were serially diluted 1:3 in DMSO and aliquoted into assay plates. Equal volumes (10 μL) of water, 3× reaction mix, and enzyme in 3× assay buffer (60 mM Hepes buffer, pH 7.5, 7.5 mM MgCl2, 7.5 mM KCl, 3 mM DTT, 0.03 mg/mL BSA, 6% glycerol) were added to the diluted compound on the assay plate. Final concentration of components in 384-well assay: 0.36 nM template, 15 nM primer, 0.29 μM ^3H-UTP (0.3 μCi), 1.6 U/μL RNAse inhibitor, 7 nM NS5B enzyme, 0.01 mg/mL BSA, 1 mM DTT, and 0.33 μg/μL beads, 20 mM Hepes buffer, pH 7.5, 2.5 mM MgCl2, 2.5 mM KCl, and 0.1% DMSO.
Reactions were allowed to proceed from 4 to 24 hours at 30° C. For 24 hour reactions, enzyme and inhibitors were pre-incubated for 24 hours before adding template and primer. Reactions were terminated by the addition of 50 mM EDTA (10 μL). After incubating for at least 15 minutes, plates were read on an Amersham LEADseeker multimodality imaging system.
IC50 values for compounds were determined using ten different [I]. IC50 values were calculated from the inhibition using the four-parameter logistic formula y=A+((B−A)/(1+((C/x)^D))), where A and B denote minimal and maximal % inhibition, respectively, C is the IC50, D is hill slope and x represents compound concentration.

T1 sequence (Q9WMX2 2420-2992): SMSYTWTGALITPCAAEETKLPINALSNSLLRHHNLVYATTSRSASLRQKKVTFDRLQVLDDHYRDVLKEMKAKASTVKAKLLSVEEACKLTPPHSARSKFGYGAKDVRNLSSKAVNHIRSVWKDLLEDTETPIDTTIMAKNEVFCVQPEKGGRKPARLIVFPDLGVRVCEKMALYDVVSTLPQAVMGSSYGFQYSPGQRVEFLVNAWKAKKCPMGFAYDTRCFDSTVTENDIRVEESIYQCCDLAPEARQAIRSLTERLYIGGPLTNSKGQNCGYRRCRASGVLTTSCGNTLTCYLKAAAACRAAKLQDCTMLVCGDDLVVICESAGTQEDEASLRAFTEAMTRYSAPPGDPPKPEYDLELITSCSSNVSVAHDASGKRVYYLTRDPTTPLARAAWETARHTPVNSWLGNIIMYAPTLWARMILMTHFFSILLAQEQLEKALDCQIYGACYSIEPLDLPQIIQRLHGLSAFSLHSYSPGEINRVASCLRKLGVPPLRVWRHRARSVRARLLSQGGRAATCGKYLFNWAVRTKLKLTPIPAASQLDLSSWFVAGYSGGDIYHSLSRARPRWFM

As usually defined, the EC50 is the midpoint of the concentration-response curve. Lower therefore signals greater potency. By IC50 is commonly meant the concentration needed to halve the response being measured. Low readings indicate greater potency, high ones weaker potency. Turning to `CCOc1cc2oc(-c3ccc(F)cc3)c(C(=O)NC)c2cc1-c1ccc(OC)c(C(=O)NC2(c3ncccn3)CC(OC(F)F)C2)c1` (single isomer, unassigned) [Example 66a, 5-(3-((3-(Difluoromethoxy)-1-(pyrimidin-2-yl)cyclobutyl)carbamoyl)-4-methoxyphenyl)-6-ethoxy-2-(4-fluorophenyl)-N-methylbenzofuran-3-carboxamide], in test [1] (Hepatitis C virus, Huh-7, 72 h), the EC50 was 4.05 nM. In test [2], it took 1.91 nM to reach half-maximal inhibition (IC50).

The compound `CNC(=O)c1c(-c2ccc(F)cc2)oc2ccc(-c3cc(C(=O)NC4(c5ncccn5)CC(OC)C4)cc(F)c3C)c(F)c12` (single isomer, unassigned) [Example 11b, 4-Fluoro-5-(3-fluoro-5-((3-methoxy-1-(pyrimidin-2-yl)cyclobutyl)carbamoyl)-2-methylphenyl)-2-(4-fluorophenyl)-N-methylbenzofuran-3-carboxamide] yielded an EC50 in test [1] of 4.56 nM. The compound further registered an IC50 in test [2] of 30 nM.

As to `CNC(=O)c1c(-c2ccc(F)cc2)oc2ccc(-c3cc(C(=O)NC4(c5ncccn5)CC(OC)C4)c(OC)cc3C)c(F)c12` (single isomer, unassigned) [Example 13a, 4-Fluoro-2-(4-fluorophenyl)-5-(4-methoxy-5-((3-methoxy-1-(pyrimidin-2-yl)cyclobutyl)carbamoyl)-2-methylphenyl)-N-methylbenzofuran-3-carboxamide], in test [1], the 50% effective concentration (EC50) was 30 nM. In test [2], this compound had a concentration for half-maximal inhibition (IC50) of 30 nM.

Take `CNC(=O)c1c(-c2ccc(F)cc2)oc2ccc(-c3cc(C(=O)NC4(c5ncccn5)CC(O)C4)cc(F)c3C)c(F)c12` (single isomer, unassigned) [Example 9a, 4-Fluoro-5-(3-fluoro-5-((3-hydroxy-1-(pyrimidin-2-yl)cyclobutyl)carbamoyl)-2-methylphenyl)-2-(4-fluorophenyl)-N-methylbenzofuran-3-carboxamide]: the midpoint of the response in test [1] (Hepatitis C virus, Huh-7, 72 h), the EC50, lay at 470 nM. Further, the IC50 in test [2] came to 570 nM.

The compound `CNC(=O)c1c(-c2ccc(F)cc2)oc2ccc(-c3cc(C(=O)NC4(c5ncccn5)CC(F)(F)C4)c(OC)cc3C)c(F)c12` [Example 18, 5-(5-(3,3-Difluoro-1-(pyrimidin-2-yl)cyclobutylcarbamoyl)-4-methoxy-2-methylphenyl)-4-fluoro-2-(4-fluorophenyl)-N-methylbenzofuran-3-carboxamide] gave an EC50 in test [1] (Hepatitis C virus, Huh-7, 72 h) of 10 nM. For the same compound, in test [2], half-maximal inhibition (IC50) required 140 nM.

The compound `CNC(=O)c1c(-c2ccc(F)cc2)oc2ccc(-c3cc(C(=O)NC4(c5ncccn5)CC(OC)(OC)C4)c(OC)cc3C)c(F)c12` [Example 14, 5-(5-((3,3-Dimethoxy-1-(pyrimidin-2-yl)cyclobutyl)carbamoyl)-4-methoxy-2-methylphenyl)-4-fluoro-2-(4-fluorophenyl)-N-methylbenzofuran-3-carboxamide] returned an EC50 in test [1] (Hepatitis C virus, Huh-7, 72 h) of 20 nM. This compound registered an IC50 in test [2] of 30 nM.

`CNC(=O)c1c(-c2ccc(F)cc2)oc2ccc(-c3cc(C(=O)NC4(c5ncccn5)CC(F)(F)C4)cc(F)c3C)c(F)c12` [Example 17, 5-(5-((3,3-Difluoro-1-(pyrimidin-2-yl)cyclobutyl)carbamoyl)-3-fluoro-2-methylphenyl)-4-fluoro-2-(4-fluorophenyl)-N-methylbenzofuran-3-carboxamide] came in with an EC50 in test [1] (Hepatitis C virus, Huh-7, 72 h) of 10 nM. This compound registered an IC50 in test [2] of 250 nM.

With `CNC(=O)c1c(-c2ccc(F)cc2)oc2ccc(-c3cc(C(=O)NC4(c5ncccn5)CC(OC)(OC)C4)ccc3C)c(F)c12` [Example 7, 5-(5-((3,3-Dimethoxy-1-(pyrimidin-2-yl)cyclobutyl)carbamoyl)-2-methylphenyl)-4-fluoro-2-(4-fluorophenyl)-N-methylbenzofuran-3-carboxamide], in test [1] (Hepatitis C virus, Huh-7, 72 h), it took 60 nM to reach a half-maximal effect (EC50). Further, half-maximal inhibition in test [2] (IC50) required 10 nM.

Take `CNC(=O)c1c(-c2ccc(F)cc2)oc2cc(CCC(F)(F)F)c(-c3cccc(C(=O)NC4(C)CC(OC(F)F)C4)c3)cc12` (single isomer, unassigned) [Example 59b, 5-(3-((3-(Difluoromethoxy)-1-methylcyclobutyl)carbamoyl)phenyl)-2-(4-fluorophenyl)-N-methyl-6-(3,3,3-trifluoropropyl)benzofuran-3-carboxamide]: in test [1], the EC50 turned out to be 20 nM. The compound also displayed an IC50 in test [2] of 10 nM.

In test [1], `CNC(=O)c1c(-c2ccc(F)cc2)oc2cc(CCC(F)(F)F)c(-c3ccc(F)c(C(=O)NC4(c5ncccn5)CC(OC(F)(F)F)C4)c3)cc12` (single isomer, unassigned) [Example 49b, 5-(4-Fluoro-3-((1-(pyrimidin-2-yl)-3-(trifluoromethoxy)cyclobutyl)carbamoyl)phenyl)-2-(4-fluorophenyl)-N-methyl-6-(3,3,3-trifluoropropyl)benzofuran-3-carboxamide] showed an EC50 of 20 nM. Further, the IC50 in test [2] worked out at 10 nM.

In turn, `CNC(=O)c1c(-c2ccc(F)cc2)oc2ccc(-c3cc(C(=O)NC4(c5ncccn5)CC(F)C4)cc(F)c3C)c(F)c12` (centres unmarked) [Example 20, 4-Fluoro-5-(3-fluoro-5-(3-fluoro-1-(pyrimidin-2-yl)cyclobutylcarbamoyl)-2-methylphenyl)-2-(4-fluorophenyl)-N-methylbenzofuran-3-carboxamide] returned an EC50 in test [1] (Hepatitis C virus, Huh-7, 72 h) of 6.16 nM. Inhibition in test [2] was half-maximal at 90 nM (IC50).

`CCCc1cc2oc(-c3ccc(F)cc3)c(C(=O)NC)c2cc1-c1ccc(OC)c(C(=O)NC2(c3ncccn3)CC(OC(F)(F)F)C2)c1` (single isomer, unassigned) [Example 51a, 2-(4-Fluorophenyl)-5-(4-methoxy-3-((1-(pyrimidin-2-yl)-3-(trifluoromethoxy)cyclobutyl)carbamoyl)phenyl)-N-methyl-6-propylbenzofuran-3-carboxamide] registered an EC50 in test [1] (Hepatitis C virus, Huh-7, 72 h) of 20 nM. The compound also registered an IC50 in test [2] of 50 nM.

`CCCc1cc2oc(-c3ccc(F)cc3)c(C(=O)NC)c2cc1-c1ccc(OC)c(C(=O)NC2(c3ncccn3)CC(OC(F)(F)F)C2)c1` (single isomer, unassigned) [Example 51b, 2-(4-Fluorophenyl)-5-(4-methoxy-3-((1-(pyrimidin-2-yl)-3-(trifluoromethoxy)cyclobutyl)carbamoyl)phenyl)-N-methyl-6-propylbenzofuran-3-carboxamide] showed an EC50 in test [1] of 10 nM. In test [2], this compound yielded a 50% inhibitory concentration (IC50) of 20 nM.
